The values below come from patent US20110039762A1, “TARGETED ANTIMICROBIAL MOIETIES” (C3 JIAN, INC., priority 2009, published 2011).

Entries after “also recorded” stand apart in the source; their conditions may differ.

The test system of one experiment is microorganisms (e.g., bacteria, yeasts, fungi). The experiment is described as follows: Targeting peptide binding to target microorganisms (Table 3). The conditions noted are these: microorganism(s) the targeting peptide binds; peptide binding conducted in aqueous buffers varied by peptide solubility, preferably 1x PBS.
Take “PF-494 (FTEPLRPLQAKGQIISIKPSTSSS; Peptide with targeting and/or antimicrobial activity)”: the “Target(s)” value is on record as “S. mutans”.

For the substance “PF-495 (KGIYKKRTY; Peptide with targeting and/or antimicrobial activity)”, the “Target(s)” value was “S. mutans; also recorded: E. coli”.

As to “PF-496 (EVTKRLVALAQQQLRG; Peptide with targeting and/or antimicrobial activity)”, the “Target(s)” value is “S. mutans; also recorded: E. coli”.

Take “PF-498 (MSEEEEVSEKVYNYLRRNEFFEVRKEEFSA; Peptide with targeting and/or antimicrobial activity)”: the “Target(s)” value is reported as “S. mutans; also recorded: E. coli”.

As for “PF-500 (MGIFKEEKIKFIDCKGEEVILKIKIKDIKK; Peptide with targeting and/or antimicrobial activity)”, the “Target(s)” value was “S. mutans; also recorded: E. coli”.

Take “PF-501 (GSTAHKSPIGSTNNQWGMKKTPTD; Peptide with targeting and/or antimicrobial activity)”: the “Target(s)” value is recorded as “S. mutans”.

As for “PF-502 (NKGKQMQDQTGKQPIVDNG; Peptide with targeting and/or antimicrobial activity)”, the “Target(s)” value is on record as “S. mutans”.

Regarding “PF-503 (VVTLKDIVAVIEDQGYDVQ; Peptide with targeting and/or antimicrobial activity)”, the “Target(s)” value was “S. mutans”.

With “PF-504 (ILSVELSTKTSASGS; Peptide with targeting and/or antimicrobial activity)”, the “Target(s)” value is “S. mutans; also recorded: E. coli”.

On to “PF-505 (GYTKDPGTGI; Peptide with targeting and/or antimicrobial activity)”, for which the “Target(s)” value is “S. mutans”.

As for “PF-506 (SGRGFALIVVLFILLIIVGAACIR; Peptide with targeting and/or antimicrobial activity)”, the “Target(s)” value was “S. mutans; also recorded: E. coli”.

Regarding “PF-507 (LALSIANLFKKKA; Peptide with targeting and/or antimicrobial activity)”, the “Target(s)” value is on record as “S. mutans; also recorded: E. coli”.

As for “PF-508 (VSTFGKVVKVVDEK; Peptide with targeting and/or antimicrobial activity)”, the “Target(s)” value is recorded as “S. mutans”.

As to “PF-509 (EAKVQAKGEQIACNNY; Peptide with targeting and/or antimicrobial activity)”, the “Target(s)” value was “S. mutans; also recorded: B. subtilis; also recorded: E. coli”.

On to “PF-510 (WYLYKKQSNQNDRGIPK; Peptide with targeting and/or antimicrobial activity)”, for which the “Target(s)” value was “S. mutans; also recorded: E. coli”.

Take “PF-568 (TQAVQVKTAQAQQQ; Peptide with targeting and/or antimicrobial activity)”: the “Target(s)” value is listed as “S. epidermidis”.

Consider “PF-570 (KKFPTEESHIQAVLEFKKLTEHPSG; Peptide with targeting and/or antimicrobial activity)”, for which the “Target(s)” value was “S. pneumoniae; also recorded: C. jeikeium”.

The experiment is the same for the next values; noted with them: peptide binding in aqueous buffers varied by peptide solubility; preferably 1x PBS.
Turning to “PF-641 (SWKCHHLAIGGSWKCHHLAI; Peptide with targeting and/or antimicrobial activity)”, the “Target(s) (microorganisms bound by the targeting peptide)” value is “S. epidermidis and M. luteus and E. coli and C. albicans and MRSA and E. faecalis and C. jeikeium and C. jejuni”.

“PF-648 (ARRYPAAGS; Peptide with targeting and/or antimicrobial activity)”: the “Target(s) (microorganisms bound by the targeting peptide)” value is on record as “S. mutans; also recorded: E. coli”.

Turning to “PF-650 (IRSDQPGRQSRSSPRWPTGAGRHR; Peptide with targeting and/or antimicrobial activity)”, the “Target(s) (microorganisms bound by the targeting peptide)” value is reported as “Mycobacteria spp”.

On to “PF-669 (RADRIESYPADGDRVITLWRNPYR; Peptide with targeting and/or antimicrobial activity)”, for which the “Target(s) (microorganisms bound by the targeting peptide)” value was “Mycobacteria spp”.

In the case of “PF-671 (TVSAFRTVH; Peptide with targeting and/or antimicrobial activity)”, the “Target(s) (microorganisms bound by the targeting peptide)” value is listed as “S. mutans; also recorded: E. coli”.

Consider “PF-673 (VRRLRM; Peptide with targeting and/or antimicrobial activity)”, for which the “Target(s) (microorganisms bound by the targeting peptide)” value is given as “S. mutans; also recorded: E. coli”.

In the case of “PF-674 (DGCDSEPALTYR; Peptide with targeting and/or antimicrobial activity)”, the “Target(s) (microorganisms bound by the targeting peptide)” value was “S. mutans; also recorded: E. coli”.

On to “PF-676 (AEYRGL; Peptide with targeting and/or antimicrobial activity)”, for which the “Target(s) (microorganisms bound by the targeting peptide)” value is reported as “S. mutans; also recorded: E. coli”.

Consider “PF-678 (RDRRWTRRDMYDWLESARV; Peptide with targeting and/or antimicrobial activity)”, for which the “Target(s) (microorganisms bound by the targeting peptide)” value is listed as “Mycobacteria spp”.

For the substance “PF-679 (CRARFIRR; Peptide with targeting and/or antimicrobial activity)”, the “Target(s) (microorganisms bound by the targeting peptide)” value is “S. mutans; also recorded: E. coli”.

Consider “PF-689 (SAPSG; Peptide with targeting and/or antimicrobial activity)”, for which the “Target(s) (microorganisms bound by the targeting peptide)” value was “S. mutans; also recorded: E. coli”.

As to “PF-701 (PRGAQSGHG; Peptide with targeting and/or antimicrobial activity)”, the “Target(s) (microorganisms bound by the targeting peptide)” value is “S. mutans”.

With “PF-703 (MTTVDNIVGLVIAVALMAFLFAALLFPEKF; Peptide with targeting and/or antimicrobial activity)”, the “Target(s) (microorganisms bound by the targeting peptide)” value is listed as “Mycobacteria spp”.

For “PF-705 (GEEEGTVAD; Peptide with targeting and/or antimicrobial activity)”, the “Target(s) (microorganisms bound by the targeting peptide)” value is “S. mutans; also recorded: E. coli”.

On to “PF-706 (LGYGAWIGCGLGLNGFHRID; Peptide with targeting and/or antimicrobial activity)”, for which the “Target(s) (microorganisms bound by the targeting peptide)” value is on record as “L. pneumophila”.

Turning to “PF-707 (IDPESIVTTNNKQDNVDEQ; Peptide with targeting and/or antimicrobial activity)”, the “Target(s) (microorganisms bound by the targeting peptide)” value is “S. mutans; also recorded: E. coli”.

On to “PF-709 (NKKHSPMD; Peptide with targeting and/or antimicrobial activity)”, for which the “Target(s) (microorganisms bound by the targeting peptide)” value is listed as “S. mutans”.

With “PF-711 (KTAGPTGTIYKTN; Peptide with targeting and/or antimicrobial activity)”, the “Target(s) (microorganisms bound by the targeting peptide)” value is given as “S. mutans”.

Turning to “PF-712 (QIYRHVHKVQAKSANLRLY; Peptide with targeting and/or antimicrobial activity)”, the “Target(s) (microorganisms bound by the targeting peptide)” value is “S. mutans; also recorded: E. coli”.

In the case of “PF-714 (FVVTQRMLRMYKK; Peptide with targeting and/or antimicrobial activity)”, the “Target(s) (microorganisms bound by the targeting peptide)” value was “L. pneumophila”.

On to “PF-716 (HGENHHHKSDEKDNDSSEKKD; Peptide with targeting and/or antimicrobial activity)”, for which the “Target(s) (microorganisms bound by the targeting peptide)” value is given as “S. mutans”.

On to “PF-717 (PQSEVTFENIYAPKANGGGLYGI; Peptide with targeting and/or antimicrobial activity)”, for which the “Target(s) (microorganisms bound by the targeting peptide)” value is “E. coli”.

Consider “PF-720 (SLDMGK; Peptide with targeting and/or antimicrobial activity)”, for which the “Target(s) (microorganisms bound by the targeting peptide)” value is recorded as “S. mutans”.

For “PF-724 (CYRFLTPKRPTRIS; Peptide with targeting and/or antimicrobial activity)”, the “Target(s) (microorganisms bound by the targeting peptide)” value is “L. pneumophila”.

Take “PF-727 (AYARCRHDYPFTLGQMQTH; Peptide with targeting and/or antimicrobial activity)”: the “Target(s) (microorganisms bound by the targeting peptide)” value is listed as “S. mutans; also recorded: E. coli”.

Consider “PF-728 (AIGQEQDRREYYYYSGYPYYY; Peptide with targeting and/or antimicrobial activity)”, for which the “Target(s) (microorganisms bound by the targeting peptide)” value is “S. mutans; also recorded: E. coli”.

As for “PF-731 (RHKLIRLPLSESVFCFLNNPKI; Peptide with targeting and/or antimicrobial activity)”, the “Target(s) (microorganisms bound by the targeting peptide)” value is “L. pneumophila”.

For the substance “PF-732 (DRPSQTTHHTLSSSRITGPS; Peptide with targeting and/or antimicrobial activity)”, the “Target(s) (microorganisms bound by the targeting peptide)” value is “E. coli”.

On to “PF-733 (VISRQMGSEAVLELFIIM; Peptide with targeting and/or antimicrobial activity)”, for which the “Target(s) (microorganisms bound by the targeting peptide)” value was “S. mutans; also recorded: E. coli”.

“PF-735 (YDPLFPNDKN; Peptide with targeting and/or antimicrobial activity)”: the “Target(s) (microorganisms bound by the targeting peptide)” value is recorded as “S. mutans; also recorded: E. coli”.

Take “PF-750 (AESSPAKTTA; Peptide with targeting and/or antimicrobial activity)”: the “Target(s) (microorganisms bound by the targeting peptide)” value is given as “M. luteus; also recorded: C. jeikeium”.

As to “PF-751 (AESSPAQETT; Peptide with targeting and/or antimicrobial activity)”, the “Target(s) (microorganisms bound by the targeting peptide)” value is given as “S. epidermidis; also recorded: E. coli; also recorded: C. albicans; also recorded: C. jeikeium”.

“PF-765 (YLYWEVEHKPIIAKRDAYYAQLRKQKEIEEGA; Peptide with targeting and/or antimicrobial activity)”: the “Target(s) (microorganisms bound by the targeting peptide)” value was “S. epidermidis and M. luteus and E. coli and MRSA and E. faecalis and C. jeikeium”.

Regarding “PF-766 (DAYYAQLRKQKEIEEGA; Peptide with targeting and/or antimicrobial activity)”, the “Target(s) (microorganisms bound by the targeting peptide)” value is “S. epidermidis and M. luteus and C. albicans and MRSA and E. faecalis and C. jeikeium”.
